Counter-ions that a name gives are not always drawn.

The test concerns the target T1, Recombinant human CDK9/cyclin T1 (Homo sapiens, UniProt P50750).
T1 construct: purchased Carna bioscience 04-110
The experiment in a line: CDK9 enzyme inhibitory activity (ADP-Glo kinase assay). To be noted: CDK9 enzyme activity, average of two independent repeats; for inhibition at 0.01 µM: read-out: Inhibition rate at different concentrations (%) 10 nM; for inhibition at 0.1 µM: compound 100 nM, read-out: Inhibition rate at different concentrations (%) 100 nM. It counts as biochemical. On the procedure:
Experimental method: Recombinant human CDK9/cyclin T1 (Carna bioscience, Cat #04-110) was diluted with dilution buffer (20 mM Tris HCl (pH 7.5), 0.02% Triton X-100, 0.01% BSA, 2 mM DTT, 0.5 mM Na3VO4, 10% Glycerol) to […], the substrates CDK7/9 tide (ThermoFisher, Cat #PV5090) and ATP (sigmaaldrich, Cat #A1852) were diluted with assay buffer (25 mM Tris HCl (pH7.5), 10 mM MgCl2, 0.5 mM EGTA (pH 8), 0.5 mM Na3VO4, 5 mMb-glycerol phosphate, 0.1% Triton X-100, 2.5 mM DTT) to final concentrations of 100 μM and […] respectively, aliquot and set aside. 2 μl of diluted recombinant human CDK9/cyclin T1, 1 μl of test compound, and 2 μl of diluted substrate CDK7/9 tide containing ATP were added to the 384-well plate. […] The positive control was the well in which enzyme and substrate were co-incubated, and the negative control was the well in which dilution buffer and substrate were co-incubated. The inhibition rate was calculated according to the following formula.
(In general: In ADP-Glo the light output rises with the ADP produced.)

T1 sequence (P50750 whole entry): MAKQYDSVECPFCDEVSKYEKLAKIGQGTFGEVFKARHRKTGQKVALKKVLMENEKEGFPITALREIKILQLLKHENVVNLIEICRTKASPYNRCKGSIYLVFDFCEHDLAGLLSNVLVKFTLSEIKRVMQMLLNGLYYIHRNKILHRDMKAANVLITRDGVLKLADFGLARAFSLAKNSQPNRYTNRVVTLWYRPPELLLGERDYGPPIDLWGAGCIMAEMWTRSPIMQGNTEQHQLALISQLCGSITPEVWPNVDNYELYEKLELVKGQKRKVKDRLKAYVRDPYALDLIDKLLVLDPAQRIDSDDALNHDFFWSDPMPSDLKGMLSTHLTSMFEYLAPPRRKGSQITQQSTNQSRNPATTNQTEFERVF
T1 sequence (O60563 whole entry partner): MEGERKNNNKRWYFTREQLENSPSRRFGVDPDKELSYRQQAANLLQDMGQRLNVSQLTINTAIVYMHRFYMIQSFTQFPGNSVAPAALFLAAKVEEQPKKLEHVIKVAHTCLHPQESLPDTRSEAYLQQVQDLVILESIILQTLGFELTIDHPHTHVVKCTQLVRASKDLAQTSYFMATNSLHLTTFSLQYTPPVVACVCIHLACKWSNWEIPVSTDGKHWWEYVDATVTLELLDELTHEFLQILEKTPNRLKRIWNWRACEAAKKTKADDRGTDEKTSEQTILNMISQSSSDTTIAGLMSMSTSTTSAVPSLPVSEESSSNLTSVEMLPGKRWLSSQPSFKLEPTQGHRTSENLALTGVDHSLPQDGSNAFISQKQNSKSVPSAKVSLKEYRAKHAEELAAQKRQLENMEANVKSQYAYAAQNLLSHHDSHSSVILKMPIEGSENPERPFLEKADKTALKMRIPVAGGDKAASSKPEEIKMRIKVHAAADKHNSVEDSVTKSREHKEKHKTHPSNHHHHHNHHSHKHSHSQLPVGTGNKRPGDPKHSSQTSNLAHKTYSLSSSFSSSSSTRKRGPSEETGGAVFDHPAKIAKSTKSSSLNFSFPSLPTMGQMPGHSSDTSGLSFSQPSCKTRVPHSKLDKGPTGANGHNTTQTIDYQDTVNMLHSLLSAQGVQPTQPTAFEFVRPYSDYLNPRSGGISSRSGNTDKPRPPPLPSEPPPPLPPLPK

Take `CC(=O)N[C@H]1CC[C@H](NC(=O)Nc2cc(-c3cnn4c3CC(C)(C)C4)c(Cl)cn2)C1` (stereo in doubt) [Example 74, N-((1S,3S)-3-(3-(5-chloro-4-(5,5-dimethyl-5,6-dihydro-4H-pyrrolo[1,2-b]pyrazol-3-yl)pyridin-2-yl)ureido)cyclopentyl)acetamide]: the inhibition at 0.1 µM was determined as 92%. Moreover, where the note is “compound 10 nM”, the inhibition at 0.01 µM is 63%.
The corresponding values for `CC1(C)Cc2c(-c3cc(NC(=O)NC4CCCC(N)C4)ncc3Cl)cnn2C1` (centres unmarked) [Example 77, 1-(3-aminocyclohexyl)-3-(5-chloro-4-(5,5-dimethyl-5,6-dihydro-4H-pyrrolo[1,2-b]pyrazol-3-yl)pyridin-2-yl)urea] are 92% and 60.3%.
In the case of `CC1(C)Cc2c(-c3cc(NC(=O)NC4CCCC(N)CC4)ncc3Cl)cnn2C1` (centres unmarked) [Example 70, 1-(4-aminocycloheptyl)-3-(5-chloro-4-(5,5-dimethyl-5,6-dihydro-4H-pyrrolo[1,2-b]pyrazole-3-yl)pyridin-2-yl)urea], the inhibition at 0.1 µM amounted to 83.7%. Further, for the setting “compound 10 nM”, the inhibition at 0.01 µM stood at 40%.
As to `CC1(C)Cc2c(-c3cc(NC(=O)NC4CCC(NCCO)CC4)ncc3Cl)cnn2C1` (centres unmarked) [Example 62, 1-(5-chloro-4-(5,5-dimethyl-5,6-dihydro-4H-pyrrolo[1,2-b]pyrazol-3-yl)pyridin-2-yl)-3-((1r,4r)-4-((2-hydroxyethyl)amino)cyclohexyl)urea], the inhibition at 0.1 µM came to 90.9%. In addition, for the setting “compound 10 nM”, the inhibition at 0.01 µM was 54%.
For the compound `COCC[N+](C)(C)C1CCC(NC(=O)Nc2cc(-c3cnn4c3CC(C)(C)C4)c(Cl)cn2)CC1` (centres unmarked) [Example 91, (1r,4r)-4-(3-(5-chloro-4-(5,5-dimethyl-5,6-dihydro-4H-pyrrolo[1,2-b]pyrazol-3-yl)pyridin-2-yl)ureido)-N-(2-methoxyethyl)-N,N-dimethylcyclohexyl-1-ammonium salt], the inhibition at 0.1 µM was found to be 88%. Moreover, the inhibition at 0.01 µM (compound 10 nM) was determined as 63%.
For `CC1(C)Cc2c(-c3cc(NC(=O)NC4CCC(N)CC4)ncc3Cl)cnn2C1` (centres unmarked) [Example 44, 1-((1r,4r)-4-aminocyclohexyl)-3-(5-chloro-4-(5,5-dimethyl-5,6-dihydro-4H-pyrrole[1,2-b]pyrazole-3-yl)pyridin-2-yl)urea], the inhibition at 0.1 µM is 96%. Besides, under “compound 10 nM, 0.01 µM”, the “Inhibition rate at different concentrations (%) 10 nM” value is on record as 83.0%.
In the case of `CC(=O)NC1CC(NC(=O)Nc2cc(-c3cnn4c3CC(C)(C)C4)c(Cl)cn2)C1` (centres unmarked) [Example 75, N-((1r,3r)-3-(3-(5-chloro-4-(5,5-dimethyl-5,6-dihydro-4H-pyrrolo[1,2-b]pyrazol-3-yl)pyridin-2-yl)ureido)cyclobutyl)acetamide], the inhibition at 0.1 µM turned out to be 83%. The inhibition at 0.01 µM (compound 10 nM) stood at 51%.
Taken in the same sequence, the figures for `CC(=O)NC1CCCC(NC(=O)Nc2cc(-c3cnn4c3CC(C)(C)C4)c(Cl)cn2)C1` (centres unmarked) [Example 79, N-(3-(3-(5-chloro-4-(5,5-dimethyl-5,6-dihydro-4H-pyrrolo[1,2-b]pyrazol-3-yl)pyridin-2-yl)ureido)cyclohexyl)acetamide] were 87% and 53%.
Regarding `COc1cc(F)ccc1-c1cc(NC(=O)NC2CCC(NCCO)CC2)ncc1Cl` (centres unmarked) [Example 20, 1-(5-chloro-4-(4-fluoro-2-methoxyphenyl)pyridin-2-yl)-3-((1r,4r)-4-((2-hydroxyethyl)amino)cyclohexyl)urea], the inhibition at 0.1 µM was found to be 88.3%. Further, the inhibition at 0.01 µM (compound 10 nM) is 38.9%.
The corresponding values for `COCCN(C)C1CCC(NC(=O)Nc2cc(-c3cnn4c3CC(C)(C)C4)c(Cl)cn2)CC1` (centres unmarked) [Example 90, 1-(5-chloro-4-(5,5-dimethyl-5,6-dihydro-4H-pyrrolo[1,2-b]pyrazol-3-yl)pyridin-2-yl)-3-((1r,4r)-4-((2-methoxyethyl)(methyl)amino)cyclohexyl)urea] are 98% and 61%.
Regarding `CC1(C)Cc2c(-c3cc(NC(=O)N[C@@H]4CC[C@@H](N)C4)ncc3Cl)cnn2C1` [Example 73, 1-((1S,3S)-3-aminocyclopentyl)-3-(5-chloro-4-(5,5-dimethyl-5,6-dihydro-4H-pyrrole[1,2-b]pyrazole-3-yl)pyridin-2-yl)urea], the inhibition at 0.1 µM amounted to 86%. Moreover, the inhibition at 0.01 µM (compound 10 nM) amounted to 70%.
Take `COc1cc(F)ccc1-c1cc(NC(=O)NC2CCC(NCCC(F)(F)F)CC2)ncc1Cl` (centres unmarked) [Example 26, 1-(5-chloro-4-(4-fluoro-2-methoxyphenyl)pyridin-2-yl)-3-((1r,4r)-4-((3,3,3-trifluoropropyl)amino)cyclohexyl)urea]: the inhibition at 0.1 µM is 82.5%. Besides, where the note is “compound 10 nM”, the inhibition at 0.01 µM stood at 39.3%.
The corresponding values for `COc1cc(F)ccc1-c1cc(NC(=O)NC2CCC(NC(C)=O)CC2)ncc1Cl` (centres unmarked) [Example 22, N-((1r,4r)-4-(3-(5-chloro-4-(4-fluoro-2-methoxyphenyl)pyridin-2-yl)ureido)cyclohexyl)acetamide] are 93.5% and 62.9%.
Turning to `CC(=O)NC1CCC(NC(=O)Nc2cc(-c3cnn4c3CCC4)c(Cl)cn2)CC1` (centres unmarked) [Example 84, N-((1r,4r)-4-(3-(5-chloro-4-(5,6-dihydro-4H-pyrrolo[1,2-b]pyrazol-3-yl)pyridin-2-yl)ureido)cyclohexyl)acetamide], the inhibition at 0.1 µM amounted to 66.3%. The inhibition at 0.01 µM (compound 10 nM) was found to be 39.5%.
Taken in the same sequence, the figures for `COCCNC1CCCC(NC(=O)Nc2cc(-c3cnn4c3CC(C)(C)C4)c(Cl)cn2)C1` (centres unmarked) [Example 80, 1-(5-chloro-4-(5,5-dimethyl-5,6-dihydro-4H-pyrrolo[1,2-b]pyrazol-3-yl)pyridin-2-yl)-3-(3-((2-methoxyethyl)amino)cyclohexyl)urea] were 56% and 48%.
For `NC1CCC(NC(=O)Nc2cc(-c3ccc(F)cc3Cl)ccn2)CC1` (centres unmarked) [Example 10, 1-((1r,4r)-4-aminocyclohexyl)-3-(4-(2-chloro-4-fluorophenyl)pyridin-2-yl) urea], the inhibition at 0.1 µM amounted to 94.6%. The inhibition at 0.01 µM (compound 10 nM) is -12.6%.
Taken in the same sequence, the figures for `CC(=O)NC1CCC(NC(=O)Nc2cc(-c3cnn(C)c3C)c(Cl)cn2)CC1` (centres unmarked) [Example 43, N-((1r,4r)-4-(3-(5-chloro-4-(1,5-dimethyl-1H-pyrazol-4-yl)pyridin-2-yl)ureido)cyclohexyl)acetamide] were 87.3% and 49%.
For the compound `CC1(C)Cc2c(-c3cc(NC(=O)NC4CCNCC4)ncc3Cl)cnn2C1` [Example 68, 1-(5-chloro-4-(5,5-dimethyl-5,6-dihydro-4H-pyrrolo[1,2-b]pyrazol-3-yl)pyridin-2-yl)-3-(piperidin-4-yl)urea], the inhibition at 0.1 µM is 89%. Also, the inhibition at 0.01 µM (compound 10 nM) came to 44%.
Turning to `CNC1CCC(NC(=O)Nc2cc(-c3cnn4c3CC(C)(C)C4)c(Cl)cn2)CC1` (centres unmarked) [Example 88, 1-(5-chloro-4-(5,5-dimethyl-5,6-dihydro-4H-pyrrolo[1,2-b]pyrazol-3-yl)pyridin-2-yl)-3-((1r,4r)-4-(methylamino)cyclohexyl)urea], the inhibition at 0.1 µM came out at 94.2%. Moreover, for the setting “compound 10 nM”, the inhibition at 0.01 µM stood at 55.7%.
On to `COc1cc(F)ccc1-c1cc(NC(=O)NC2CCC(NC(C)C)CC2)ncc1Cl` (centres unmarked) [Example 23, 1-(5-chloro-4-(4-fluoro-2-methoxyphenyl)pyridin-2-yl)-3-((1r,4r)-4-(isopropylamino)cyclohexyl)urea], for which the inhibition at 0.1 µM worked out at 87.4%. The inhibition at 0.01 µM (compound 10 nM) was 37.2%.
The corresponding values for `CC1(C)Cc2c(-c3cc(NC(=O)NC4CCCC(NC(=O)OC(C)(C)C)C4)ncc3Cl)cnn2C1` (centres unmarked) [Example 76, tert-butyl (3-(3-(5-chloro-4-(5,5-dimethyl-5,6-dihydro-4H-pyrrolo[1,2-b]pyrazol-3-yl)pyridin-2-yl)ureido)cyclohexyl)carbamate] are 91% and 25%.
For `CC(=O)NC1CCC(NC(=O)Nc2cc(-c3cnn4c3CC(C)(C)C4)ccn2)CC1` (centres unmarked) [Example 16, 1-((1r,4r)-4-(3-(4-(5,5-dimethyl-5,6-dihydro-4H-pyrrolo[1,2-b]pyrazol-3-yl)pyridin-2-yl)ureido)cyclohexyl)acetamide], the inhibition at 0.1 µM was 95.7%. For the setting “compound 10 nM”, the inhibition at 0.01 µM came to 72%.
Turning to `COCCNC1CCC(NC(=O)Nc2cc(-c3ccc(F)cc3OC)c(C)cn2)CC1` (centres unmarked) [Example 29, 1-(4-(4-fluoro-2-methoxyphenyl)-5-methylpyridin-2-yl)-3-((1r,4r)-4-((2-methoxyethyl)amino)cyclohexyl) urea], the inhibition at 0.1 µM is 57%. In addition, the inhibition at 0.01 µM (compound 10 nM) stood at 19.4%.
On to `COc1cc(F)ccc1-c1cc(NC(=O)NC2CCC(NC(=O)OC(C)(C)C)CC2)ncn1` (centres unmarked) [Example 39, tert-butyl ((1r,4r)-4-(3-(6-(4-fluoro-2-methoxyphenyl)pyrimidin-4-yl)ureido)cyclohexyl)carbamate], for which the inhibition at 0.1 µM stood at 55%. Further, the inhibition at 0.01 µM (compound 10 nM) worked out at 28%.
Taken in the same sequence, the figures for `COc1cc(F)ccc1-c1cc(NC(=O)NC2CCC(N)CC2)ncc1Cl` (centres unmarked) [Example 18, 1-((1r,4r)-4-aminocyclohexyl)-3-(5-chloro-4-(4-fluoro-2-methoxyphenyl)pyridin-2-yl)urea] were 86% and 84%.

For the origin of these results see patent publication US20240351986A1, “UREA COMPOUND CONTAINING 2-HETEROAROMATIC RING SUBSTITUTION, PREPARATION METHOD THEREFOR AND USE THEREOF” (SHANGHAI INSTITUTE OF MATERIA MEDICA, CHINESE ACADEMY OF …, priority 2021, published 2024).
